According to US20250360132A1, “METHODS OF ADMINISTERING MYOSIN INHIBITORS” (MYOKARDIA, INC., priority 2022, published 2025):

Legend:
[1] = molecular target: CYP3A4 (Homo sapiens, UniProt P08684); assay: Clinical DDI with moderate CYP3A4 inhibitor verapamil; format: in vivo; parameters: host or cells: in silico (Simcyp v19 where stated); settings: mavacamten 25 mg with verapamil sustained release 240 mg; CYP2C19 IMs and NMs
[2] = molecular target: CYP2C19 (Homo sapiens, UniProt P33261); assay: Metabolism, contribution of CYP2C19; format: in vitro ADME
Sequence of CYP2C19 (P33261 whole entry): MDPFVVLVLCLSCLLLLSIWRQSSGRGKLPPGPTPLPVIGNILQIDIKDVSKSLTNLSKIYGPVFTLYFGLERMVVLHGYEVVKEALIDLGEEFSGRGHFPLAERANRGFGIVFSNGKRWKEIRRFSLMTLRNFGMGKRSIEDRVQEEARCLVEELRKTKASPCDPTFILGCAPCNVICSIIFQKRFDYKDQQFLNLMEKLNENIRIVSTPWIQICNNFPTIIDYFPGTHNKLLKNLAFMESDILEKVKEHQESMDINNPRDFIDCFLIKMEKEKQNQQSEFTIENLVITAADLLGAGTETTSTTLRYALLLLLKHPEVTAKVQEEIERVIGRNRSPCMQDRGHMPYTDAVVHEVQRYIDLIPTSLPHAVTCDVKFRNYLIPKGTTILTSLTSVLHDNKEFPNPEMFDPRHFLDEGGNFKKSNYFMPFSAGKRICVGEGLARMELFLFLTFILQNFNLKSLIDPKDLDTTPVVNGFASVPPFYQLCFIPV
Text: Mavacamten is extensively metabolized, primarily through CYP2C19 (74%), CYP3A4 (18%), and CYP2C9 (8%).
Statement of Purpose: Mavacamten is a first-in-class, selective, allosteric, and reversible cardiac myosin inhibitor in development for the treatment of adults with symptomatic obstructive hypertrophic cardiomyopathy. Mavacamten is hepatically metabolized predominantly via CYP2C19 (74%), CYP3A4 (18%) and CYP2C9 (8%). A previously developed fit-for-purpose physiologically based pharmacokinetic (PBPK) model was applied to explore the induction effects of a strong CYP3A4/CYP2C19 inducer-rifampin, as well as a strong CYP3A4 inducer-carbamazepine, on mavacamten exposures.

[3] = system: pregnant rabbits; assay: Embryo-fetal development study in rabbits; format: in vivo, rabbit
Protocol: Visceral findings consisted of malformations of the great vessels (dilatation of pulmonary trunk and/or aortic arch). Skeletal malformations consisted of higher incidences of fused sternebrae at ≥1.2 mg/kg/day. Plasma exposure (AUC) at the no-effect dose for embryo-fetal development in rabbits is 0.4 times the exposure in humans at the MRHD.

[4] = system: virtual oHCM patients; assay: Exposure-response simulation of titration Regimen #2; parameters: species or system human; settings: CYP2C19 phenotype distribution in the EU population
Text: Mavacamten has substantial pharmacokinetic (PK) variability, the largest contributor being CYP2C19 phenotype. Beyond phenotype, and after incorporation of all PK covariates, a moderate inter-individual variability remains. As a result of the PK variability, there is a need to achieve an ideal balance of reducing the Valsalva left ventricular outflow tract gradient (VLVOT) while maintaining the patient's left ventricular ejection fraction (LVEF), and an echocardiogram (ECHO) based titration regimen was developed. Modeling and simulation analyses have been undertaken to further evaluate dose titration by CYP2C19 phenotype.
In addition, an exposure-response simulation-based approach was utilized to investigate multiple titration regimens using an equal distribution of CYP2C19 phenotype to allow for additional sensitivity in assessing the performance of the titration regimen for each phenotype. The evaluations included genotype specific dosing and titration, adjusted starting dose of 2.5 mg and additional monitoring intervals. For each posology investigated, the key objectives remained consistent: to limit the percent (%) of simulated patients experiencing LVEF <50%, while gradually up-titrating them to achieve VLVOT <30 mmHg. This Example outlines the evaluation of 3 titration regimens, described below.
The methods used to conduct the simulations are described as follows. […]

[5] = system: patients with HCM and healthy subjects; assay: Human experience of overdose / high doses; format: in vivo
[6] = Pre/postnatal development study; format: in vivo, rat; settings: female, rat, in vivo; oral, gestation Day 6 to lactation/post-partum Day 20; highest dosage level tested; read-out: no-observed-adverse-effect level (NOAEL)
Protocol: (§1) In a pre/postnatal development study, mavacamten was administered orally to pregnant rats (0.3, to 1.5 mg/kg/day) from gestation Day 6 to lactation/post-partum Day 20.

[7] = system: pregnant rats; assay: Pre/postnatal development study; format: in vivo, rat; settings: 0.3 to 1.5 mg/kg/day
Protocol: as §1

[8] = system: HCM patients; assay: Meta-analysis of QTc across clinical studies; format: in vivo, human; settings: therapeutic exposure range
Text: The effect of coadministration of MAVACAMTEN with QT-prolonging drugs or in patients with potassium channel variants resulting in a long QT interval have not been characterized.

[9] = molecular target: P-gp (Homo sapiens, UniProt P08183); assay: In vitro transporter inhibition; format: in vitro ADME
Sequence of P-gp (P08183 whole entry): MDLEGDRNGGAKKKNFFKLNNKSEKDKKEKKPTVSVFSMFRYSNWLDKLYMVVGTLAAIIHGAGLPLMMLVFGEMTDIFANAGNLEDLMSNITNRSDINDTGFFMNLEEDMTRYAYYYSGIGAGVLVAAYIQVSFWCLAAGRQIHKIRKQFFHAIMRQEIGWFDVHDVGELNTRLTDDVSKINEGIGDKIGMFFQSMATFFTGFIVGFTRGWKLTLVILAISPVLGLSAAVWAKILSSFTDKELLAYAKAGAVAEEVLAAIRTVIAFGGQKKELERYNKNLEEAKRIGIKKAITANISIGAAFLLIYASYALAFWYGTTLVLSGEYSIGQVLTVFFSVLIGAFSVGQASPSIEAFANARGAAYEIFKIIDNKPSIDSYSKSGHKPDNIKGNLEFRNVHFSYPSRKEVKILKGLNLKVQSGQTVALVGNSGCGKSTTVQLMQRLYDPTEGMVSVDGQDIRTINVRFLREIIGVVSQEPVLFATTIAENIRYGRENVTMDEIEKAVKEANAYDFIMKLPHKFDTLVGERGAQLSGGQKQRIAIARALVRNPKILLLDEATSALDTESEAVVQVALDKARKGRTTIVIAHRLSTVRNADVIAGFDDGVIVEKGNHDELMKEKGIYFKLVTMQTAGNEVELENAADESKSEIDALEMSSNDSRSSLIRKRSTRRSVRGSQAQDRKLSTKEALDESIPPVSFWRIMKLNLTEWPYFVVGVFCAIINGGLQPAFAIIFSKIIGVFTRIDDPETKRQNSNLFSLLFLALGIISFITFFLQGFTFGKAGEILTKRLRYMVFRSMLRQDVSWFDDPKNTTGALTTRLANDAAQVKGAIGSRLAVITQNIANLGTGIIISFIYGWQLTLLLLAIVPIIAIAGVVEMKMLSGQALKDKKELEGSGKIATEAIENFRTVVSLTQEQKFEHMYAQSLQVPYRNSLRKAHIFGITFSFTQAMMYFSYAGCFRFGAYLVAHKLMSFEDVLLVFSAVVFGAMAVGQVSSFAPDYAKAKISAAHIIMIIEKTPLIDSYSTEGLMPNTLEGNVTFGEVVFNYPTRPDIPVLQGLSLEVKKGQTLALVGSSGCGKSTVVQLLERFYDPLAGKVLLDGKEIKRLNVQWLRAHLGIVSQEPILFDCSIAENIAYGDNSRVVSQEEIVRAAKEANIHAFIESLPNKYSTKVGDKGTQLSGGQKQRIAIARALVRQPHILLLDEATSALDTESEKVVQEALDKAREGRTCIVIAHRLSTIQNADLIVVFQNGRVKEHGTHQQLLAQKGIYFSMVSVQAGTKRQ

[10] = system: bacterial; format: cell-based
Text: (§2) Mavacamten was not genotoxic in a bacterial reverse mutation test (Ames test), a human in vitro lymphocyte […] assay, or a rat in vivo micronucleus assay.

[11] = system: rat; assay: Rat in vivo micronucleus assay
Text: as §2

Sequence of CYP3A4 (P08684 whole entry): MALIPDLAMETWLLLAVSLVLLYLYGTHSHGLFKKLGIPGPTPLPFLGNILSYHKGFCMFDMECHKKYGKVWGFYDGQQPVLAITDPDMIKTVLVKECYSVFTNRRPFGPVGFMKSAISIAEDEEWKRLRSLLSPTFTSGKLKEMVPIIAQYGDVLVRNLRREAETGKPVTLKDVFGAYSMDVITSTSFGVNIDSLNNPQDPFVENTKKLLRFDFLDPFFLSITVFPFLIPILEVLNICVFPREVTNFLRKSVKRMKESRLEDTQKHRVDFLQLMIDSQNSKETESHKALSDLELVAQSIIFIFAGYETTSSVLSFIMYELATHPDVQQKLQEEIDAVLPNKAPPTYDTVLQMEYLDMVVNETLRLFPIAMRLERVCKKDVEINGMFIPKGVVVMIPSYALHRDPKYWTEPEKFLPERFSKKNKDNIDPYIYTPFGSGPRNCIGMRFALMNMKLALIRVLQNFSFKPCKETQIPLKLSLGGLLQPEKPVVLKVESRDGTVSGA

**Q.** What does the source list for `CC(C)n1c(=O)cc(N[C@@H](C)c2ccccc2)[nH]c1=O` [mavacamten, (S)-3-Isopropyl-6-((1-phenylethyl)amino)pyrimidine-2,4(1H,3H)-dione]?
**A.** Increase in mavacamten AUCinf [1]: 15%; Increase in mavacamten Cmax [1]: 52%; Metabolism through CYP2C19 [2]: 74%; Embryo-fetal findings (risk summary) ([3]; both rabbits and rats, dose exposures similar to that at the MRHD): increases in visceral and skeletal malformations; Doses at which fetal malformations (visceral and skeletal) were increased ([3]; oral, period of organogenesis): ≥ 1.2 mg/kg/day; Plasma exposure (AUC) at the no-effect dose for embryo-fetal development vs humans at the MRHD ([3]; rabbits): 0.4 times; patients excluded/permanently discontinued overall [4]: < 0.5%; participants experiencing 20% or greater reductions in LVEF ([5]; healthy subjects, 25 mg dose level, up to 25 days): 3 of 8; Outcome of accidental ingestion ([5]; infant, three 15 mg capsules): infant death; Events after single dose of 144 mg ([5]; one subject with HCM, subject recovered): serious adverse events including vasovagal reaction, hypotension, and asystole; NOAEL [6]: 1.5 mg/kg/day; Effects in dams or offspring [7]: No adverse effects were observed in the dams or offspring; QTc interval in HCM patients [8]: does not suggest clinically relevant increases in the QTc interval; Inhibition of P-gp [9]: does not inhibit; Genotoxicity, Ames test [10]: not genotoxic; Genotoxicity, rat in vivo micronucleus assay [11]: not genotoxic
